Test results as given in ChEMBL document CHEMBL2331130, “Synthesis and antibacterial activity of 9-oxime ether non-ketolides, and novel binding mode of alkylides with bacterial rRNA” (2013).
Values after ≈ are worked out from the molar mass of the structure shown.

Columns and labels:
Assay type in all cases: functional
[1] = test system: Staphylococcus epidermidis; assay: Ratio of telithromycin MIC to compound MIC for methicillin-resistant, coagulase-negative, MLS-resistant (inducible) Staphylococcus epidermidis E3 by broth microdilution method
[2] = test system: Staphylococcus aureus; assay: Ratio of telithromycin MIC to compound MIC for methicillin-resistant, […], MLS-resistant (constitutive) Staphylococcus aureus PU 19 by broth microdilution method
[3] = test system: Streptococcus pyogenes; assay: Ratio of telithromycin MIC to compound MIC for MLS-resistant (constitutive) Streptococcus pyogenes A2 by broth microdilution method
[4] = test system: Streptococcus dysgalactiae; assay: Ratio of telithromycin MIC to compound MIC for erythromycin-resistant Streptococcus dysgalactiae A1 by broth microdilution method
[5] = test system: Staphylococcus epidermidis; assay: Antibacterial activity against methicillin-resistant, coagulase-negative, MLS-resistant (inducible) Staphylococcus epidermidis E3 by broth microdilution method
[6] = test system: Staphylococcus epidermidis; assay: Antibacterial activity against methicillin-resistant, MLS-resistant (constitutive) Staphylococcus epidermidis E2 by broth microdilution method
[7] = test system: Staphylococcus epidermidis; assay: Antibacterial activity against methicillin-susceptible, MLS-resistant (inducible) Staphylococcus epidermidis E1 by broth microdilution method
[8] = test system: Staphylococcus aureus; assay: Antibacterial activity against methicillin-resistant, […], MLS-resistant (constitutive) Staphylococcus aureus PU 19 by broth microdilution method
[9] = test system: Staphylococcus aureus; assay: Antibacterial activity against methicillin-resistant, MLS-resistant (inducible) Staphylococcus aureus PU 32 by broth microdilution method
[10] = test system: Staphylococcus aureus; assay: Antibacterial activity against erythromycin-susceptible Staphylococcus aureus ATCC 29213 by broth microdilution method
[11] = test system: Streptococcus pyogenes; assay: Antibacterial activity against erythromycin-susceptible Streptococcus pyogenes A3 by broth microdilution method
[12] = test system: Streptococcus pyogenes; assay: Antibacterial activity against MLS-resistant (constitutive) Streptococcus pyogenes A2 by broth microdilution method
[13] = test system: Streptococcus dysgalactiae; assay: Antibacterial activity against erythromycin-resistant Streptococcus dysgalactiae A1 by broth microdilution method
[14] = test system: Streptococcus pneumoniae; assay: Antibacterial activity against MLS-resistant (constitutive), penicillin-resistant Streptococcus pneumoniae PU11 by broth microdilution method
[15] = test system: Streptococcus pneumoniae; assay: Antibacterial activity against penicillin-susceptible Streptococcus pneumoniae PU09 harboring mef gene by broth microdilution method
[16] = test system: Streptococcus pneumoniae; assay: Antibacterial activity against erythromycin-susceptible Streptococcus pneumoniae ATCC 49619 by broth microdilution method
[17] = test system: Staphylococcus aureus; assay: Antibacterial activity against methicillin-susceptible, MLS-resistant (inducible) Staphylococcus aureus PU 64 by broth microdilution method
[18] = test system: Staphylococcus aureus; assay: Antibacterial activity against methicillin-resistant, MLS-resistant (constitutive) Staphylococcus aureus PU 20 by broth microdilution method
[19] = test system: Streptococcus pneumoniae; assay: Antibacterial activity against MLS-resistant (constitutive), penicillin-susceptible Streptococcus pneumoniae PU27 by broth microdilution method

Compound	Ratio [1]	Ratio [2]	Ratio [3]	Ratio [4]	MIC [5]	MIC [6]	MIC [7]	MIC [8]	MIC [9]	MIC [10]	MIC [11]	MIC [12]	MIC [13]	MIC [14]	MIC [15]	MIC [16]	MIC [17]	MIC [18]	MIC [19]
CC[C@H]1OC(=O)[C@H](C)C(=O)[C@H](C)[C@@H](O[C@@H]2O[C@H](C)C[C@H](N(C)C)[C@H]2O)[C@](C)(OC)C[C@@H](C)/C(=N\OC/C=C/c2cnc3ccccc3c2)[C@H](C)[C@H]2OC(=O)O[C@@]21C	4	4	4	4	2 µg/mL (≈ 2.51 µM)	128 µg/mL (≈ 161 µM)	8 µg/mL (≈ 10.1 µM)	64 µg/mL (≈ 80.4 µM)	1 µg/mL (≈ 1.26 µM)	0.5 µg/mL (≈ 0.628 µM)	0.032 µg/mL (≈ 0.0402 µM)	32 µg/mL (≈ 40.2 µM)	0.5 µg/mL (≈ 0.628 µM)	64 µg/mL (≈ 80.4 µM)	1 µg/mL (≈ 1.26 µM)	0.125 µg/mL (≈ 0.157 µM)			
CC[C@H]1OC(=O)[C@H](C)C(=O)[C@H](C)[C@@H](O[C@@H]2O[C@H](C)C[C@H](N(C)C)[C@H]2O)[C@](C)(OC)C[C@@H](C)/C(=N\OC/C=C/c2ccc(-c3ccccn3)s2)[C@H](C)[C@H]2OC(=O)O[C@@]21C					64 µg/mL (≈ 77.3 µM)	> 256 µg/mL	32 µg/mL (≈ 38.6 µM)	128 µg/mL (≈ 155 µM)	8 µg/mL (≈ 9.66 µM)	8 µg/mL (≈ 9.66 µM)	0.5 µg/mL (≈ 0.604 µM)	64 µg/mL (≈ 77.3 µM)	4 µg/mL (≈ 4.83 µM)	64 µg/mL (≈ 77.3 µM)	4 µg/mL (≈ 4.83 µM)	0.5 µg/mL (≈ 0.604 µM)			
CC[C@H]1OC(=O)[C@H](C)C(=O)[C@H](C)[C@@H](O[C@@H]2O[C@H](C)C[C@H](N(C)C)[C@H]2O)[C@](C)(OC)C[C@@H](C)/C(=N\OC/C=C/c2ccc(C(=O)c3ccccc3)s2)[C@H](C)[C@H]2OC(=O)O[C@@]21C					64 µg/mL (≈ 74.8 µM)	> 256 µg/mL	32 µg/mL (≈ 37.4 µM)	> 256 µg/mL	16 µg/mL (≈ 18.7 µM)	16 µg/mL (≈ 18.7 µM)	2 µg/mL (≈ 2.34 µM)	64 µg/mL (≈ 74.8 µM)	4 µg/mL (≈ 4.68 µM)	64 µg/mL (≈ 74.8 µM)	4 µg/mL (≈ 4.68 µM)	2 µg/mL (≈ 2.34 µM)			
CC[C@H]1OC(=O)[C@H](C)C(=O)[C@H](C)[C@@H](O[C@@H]2O[C@H](C)C[C@H](N(C)C)[C@H]2O)[C@](C)(OC)C[C@@H](C)/C(=N\OC/C=C/c2ccc(-c3cccs3)cc2)[C@H](C)[C@H]2OC(=O)O[C@@]21C					64 µg/mL (≈ 77.4 µM)	256 µg/mL (≈ 310 µM)	64 µg/mL (≈ 77.4 µM)	64 µg/mL (≈ 77.4 µM)	64 µg/mL (≈ 77.4 µM)	32 µg/mL (≈ 38.7 µM)	1 µg/mL (≈ 1.21 µM)	32 µg/mL (≈ 38.7 µM)	16 µg/mL (≈ 19.3 µM)	64 µg/mL (≈ 77.4 µM)	16 µg/mL (≈ 19.3 µM)	2 µg/mL (≈ 2.42 µM)			
CC[C@H]1OC(=O)[C@H](C)[C@@H](O/C=C\Cc2cncnc2)[C@H](C)[C@@H](O[C@@H]2O[C@H](C)C[C@H](N(C)C)[C@H]2O)[C@](C)(OC)C[C@@H](C)/C(=N\OC/C=C/c2cnc3ccccc3c2)[C@H](C)[C@H]2OC(=O)O[C@@]21C					> 256 µg/mL	> 256 µg/mL	> 256 µg/mL	> 256 µg/mL	> 256 µg/mL	32 µg/mL (≈ 34.9 µM)	2 µg/mL (≈ 2.18 µM)	64 µg/mL (≈ 69.9 µM)	16 µg/mL (≈ 17.5 µM)	128 µg/mL (≈ 140 µM)	32 µg/mL (≈ 34.9 µM)	2 µg/mL (≈ 2.18 µM)	32 µg/mL (≈ 34.9 µM)	> 256 µg/mL	64 µg/mL (≈ 69.9 µM)
CC[C@H]1OC(=O)[C@H](C)[C@@H](O)[C@H](C)[C@@H](O[C@@H]2O[C@H](C)C[C@H](N(C)C)[C@H]2O)[C@](C)(OC)C[C@@H](C)/C(=N\OC/C=C/c2cnc3ccccc3c2)[C@H](C)[C@H]2OC(=O)O[C@@]21C					> 256 µg/mL	> 256 µg/mL	128 µg/mL (≈ 160 µM)	> 256 µg/mL	128 µg/mL (≈ 160 µM)	128 µg/mL (≈ 160 µM)	8 µg/mL (≈ 10 µM)	64 µg/mL (≈ 80.2 µM)	16 µg/mL (≈ 20.1 µM)	64 µg/mL (≈ 80.2 µM)	4 µg/mL (≈ 5.01 µM)	4 µg/mL (≈ 5.01 µM)	256 µg/mL (≈ 321 µM)	> 256 µg/mL	64 µg/mL (≈ 80.2 µM)
CC[C@H]1OC(=O)[C@H](C)[C@@H](O)[C@H](C)[C@@H](O[C@@H]2O[C@H](C)C[C@H](N(C)C)[C@H]2O)[C@](C)(OC)C[C@@H](C)/C(=N\OCCCc2cncc3ccccc23)[C@H](C)[C@H]2OC(=O)O[C@@]21C					> 256 µg/mL	> 256 µg/mL	> 256 µg/mL	> 256 µg/mL	> 256 µg/mL	> 256 µg/mL	4 µg/mL (≈ 5 µM)	32 µg/mL (≈ 40 µM)	16 µg/mL (≈ 20 µM)	32 µg/mL (≈ 40 µM)	8 µg/mL (≈ 10 µM)	8 µg/mL (≈ 10 µM)	256 µg/mL (≈ 320 µM)	> 256 µg/mL	32 µg/mL (≈ 40 µM)
